In brackets after ≈: the same amount, converted by molar mass. Where two headings read alike, the source gives them in different places.
Columns and labels:
[1] = tested on: Trypanosoma cruzi (Tulahuen C2C4 strain); assay: American trypanosome protozoa growth inhibition screening test; format: cell-based; conditions: Trypanosoma cruzi, Table 5, in rat L6 cells, 96 hours, CPRG/Nonidet, read-out: 50% Growth inhibition concentration Trypanosoma cruzi
Protocol: In the present experiment, amastigote and trypomastigote infected with rat L6 cells of protozoa of Trypanosoma cruzi (Tulahuen C2C4 starin) were used. As medium used in the test, RPMI 1640 medium containing L6 cells was supplemented so that L-glutamine (200 mM) become 1%, fetal bovine serum becomes 10%, which was cultured under CO2 concentration 5%, at 37° C.
The compounds of the present invention to be used in the present test and the positive control drug (benznidazole) were dissolved in DMSO to make a test solution of a predetermined concentration.
A medium containing 5×10^3 protozoa was added to wells of a 96-well culture plate, and pre-cultured for 48 hours. After replacing the medium, test solution containing drug of a predetermined concentration or a drug-free DMSO was added. Test solutions were taken by duplicates.
After culturing the culture plate in an incubator for 96 hours, growth inhibition activity was tested. Test was conducted as follows. 50 μL of CPRG/Nonidet was added to each well, and allowed to rest for 2 to 6 hours. Next, the culture plate was placed on a fluorescent micro-plate reader. The absorbance was measured at 540 nm, and the trypanosome infection rate of the test solution added group and control group were calculated.
(§1) Growth inhibition rate (%)={1−(b−a)/(c−a)}×100 • a: early infection rate • b: infection rate when test solution was added • c: infection rate of the control

[2] = tested on: Leishmania donovani (MHOM/ET/67/L82 strain); assay: Leishmania protozoa growth inhibition screening test; format: cell-based; conditions: Leishmania donovani; Table 5; amastigotes, 72 hours, Alamar Blue; read-out: 50% Growth inhibition concentration Leishmania donovani
Protocol: In the present experiment, Leishmania donovani (MHOM/ET/67/L82 strain) was used. Protozoa was subcultured in Syrian Golden hamster, from which an amastigote was obtained. In the experiment, SM medium supplemented with 10% heat-treated bovine fetal serum was used, which was adjusted to pH 5.4, and cultured in an atmosphere of 5% CO2 concentration, at 37° C.
The compounds of the present invention to be used in the present test and the positive control drug (miltefosine) were dissolved in DMSO to make a test solution of a predetermined concentration.
After adding a medium containing a predetermined number of protozoa to wells of a 96-well culture'plate and pre-treating, concentration of the amastigote was measured with CASY cell analysis system (Scharfe, Germany). Then, test solution containing a drug of a predetermined concentration or a drug-free DMSO was added. Test solutions were taken by duplicates.
After culturing the culture plate for 72 hours in an incubator, growth inhibition activity was tested. Test was conducted as follows. 10 μL of Alamar Blue aqueous solution was added to each well, and the resultant was further cultured for 2 hours. Next, the culture plate was placed on a fluorescent micro-plate reader (Spectramax Gemeni XS; US Molecular Device), radiated at an excited wavelength of 536 nm. Fluorescent intensity was measured at 588 nm, and infection rate of leishmania protozoa of the test solution added group and control was calculated.
as §1

Plasmodium falciparum K1 = assay: Chloroquine resistant-Plasmodium falciparum growth inhibition screening test; format: cell-based; conditions: EC50 against rat L6 cells / EC50 against P. falciparum K1
Protocol: In the present experiment, protozoa of plasmodium falsiparum K1 strain was used. RPMI-1640 medium sterilized with a filter to which human serum was added to be 5%, was used in the experiment. Malarial parasites were cultured under 3% O2 concentration, 4% CO2 concentration, 93% N2 concentration, and at a temperature of 37° C.
The compounds of the present invention to be used in the present test and the positive control drug (chloroquine) were dissolved in DMSO to make a test solution of a predetermined concentration. Cultured malaria parasite infected-erythrocytes were collected by centrifugation, and diluted with non-infected erythrocyte so that the early infection rate was 0.15%. Hematocrit level at that time was 2.5%.
200 μL of malaria infected solution was added to wells of a 96-well culture plate, and adjusted by adding a test solution containing drug of a predetermined concentration or a drug-free DMSO. Test solutions were taken by duplicates.
[…] […] Radiation intensity was measured with a beta plate liquid scintillation counter (Wallac), and malarial parasite infection rates of the test solution added group and the control group were calculated.
Growth inhibition rate (%)={1−(b−a)/(c−a)}×100 • a: early infection rate • b: infection rate when test solution was added • c: infection rate of the control 3. Growth Inhibition Test of Rat L6 Cells
Antimalarial activity of a sample was estimated from EC50 values of the sample against chloroquine resistant-Plasmodium falciparum and rat L6 cells. […] It means that the larger the value of the selection toxity, the less the risk of the side effect is. Chemotherapy index=(EC50 value of a sample against rat L6 cells)/(EC50 value of a sample against chloroquine resistant-Plasmodium falsiparum)

Rat L6 cells = assay: Growth inhibition test of rat L6 cells; format: cell-based; conditions: Table 1, 72 hours, Alamar Blue, read-out: 50% Growth inhibition concentration Cytoxicity L6
Protocol: Rat derived-L6 cells (rat skeletal myoblast cell) were used. A medium, RPMI1640 medium was supplemented so that L-glutamin (200 mM) is 1%, and fetal bovine serum 10%, and the medium was cultured under CO2 concentration 5%, at 37° C.
The compounds of the present invention and the control drugs to be used in the test were dissolved in DMSO, to make a test solution of a predetermined concentration.
Pre-culture was conducted and medium containing cells which have entered the logarithmic growth phase was taken to wells of a 96-well culture plate. Then, a test solution containing drug of a predetermined concentration or a drug-free DMSO was added. Test solutions were taken by duplicates.
Culture plate was cultured for 72 hours in an incubator, to test the growth inhibition activity. Test was conducted as follows. 10 μL of Alamar Blue aqueous solution was added to each well, and the resultant was further cultured for 2 hours. Next, the culture plate was placed on a fluorescent micro-plate reader (Spectramax Gemeni XS; US Molecular Device), radiated at an excited wavelength of 536 nm. Fluorescent intensity was measured at 588 nm, and residual rate of L6 cells of the test solution added group, and that of the control was calculated.
Growth inhibition rate (%)={(C−A)/(B−A)}×100 • A: Primary cell count • B: cell count of control, 3 days after • C: cell count of wells added with a sample, 3 days after 4. Determination of Drug Efficacy Against Chloroquine Resistant-Plasmodium

[3] = tested on: Trypanosoma brucei rhodesiense (STIB 900 strain); assay: African trypanosome protozoa growth inhibition screening test; format: cell-based; conditions: read-out: 50% Growth inhibition concentration Trypanosoma brucei rhod.
Protocol: In the present experiment, protozoa of Tripanosoma brucei rhodensiense (STIB 900 Strain), a trypomastigote living in blood stream, was used. The medium used in the experiment was a MEM medium which was sterilized with a filter and supplemented with 25 mM N-2-hydroxyeihylpiperazine-2-ethansulfonic acid (HEPES), 1 g/L glucose, 1% MEM non-essential amino acid, 0.2 mM 2-mercaptoethanol, 2 mM sodium pyruvate, 0.1 mM hypoxanthine, and 15% heat-treated horse serum. The protozoa was cultured in an atmosphere of CO2 concentration 5%, at a temperature of 37° C.
The compounds of the present invention to be used in the present test and the positive control drug (melarsoprol) were dissolved in dimethylsulfoxide (DMSO) to make a test solution of a predetermined concentration.
A medium containing 8×10^3 protozoa, and a test solution containing a drug of a predetermined concentration of a drug-free DMSO were added to wells of a 96-well culture plate, and subsequently, medium was added so that the amount in each well becomes 100 μL. Test solutions were taken by duplicates.
After culturing the culture plate for 72 hours in an incubator, growth inhibition activity was tested. Test was conducted as follows. 10 μL of Alamar Blue aqueous solution was added to each well, and the resultant was further cultured for 2 hours. Next, the culture plate was placed on a fluorescent micro-plate reader (Spectramax Gemeni XS; US Molecular Device), radiated at an excited wavelength of 536 nm. Fluorescent intensity was measured at 588 nm, to calculate the trypanosome protozoa infected rate of the test solution added-group, and of the control group.
as §1

SMILES	EC50 [1]	EC50 [2]	Selective toxicity (Plasmodium falciparum K1)	EC50 (Rat L6 cells)	EC50 ([3]; Table 5, 72 hours, Alamar Blue)	melting point	EC50 ([3]; 72 h)
O=C(Cn1ccnc1[N+](=O)[O-])NCc1ccccc1 [Benznidazole, benznidazole, reference compound]	0.225 µg/mL (≈ 0.866 µM)						
CCCCCCCCCCCCCCCCOP(=O)([O-])OCC[N+](C)(C)C [Milfotesine, miltefosine, reference compound]		0.114 µg/mL (≈ 0.278 µM)					
CCN(CC)c1ccc2nc3c4ccc(Br)cc4c(=Nc4ccncc4)cc-3oc2c1 [Compound 1G, 3-Bromo-N,N-diethyl-5-(pyridin-4-ylimino)-5H-benzo[a]phenoxazin-9-amine]	> 30 µg/mL	19.1 µg/mL (≈ 40.4 µM)	>18000	> 90 µg/mL	61 µg/mL (≈ 129 µM)	269 to 271 °C	
CCN(CC)c1ccc2nc3c4ccccc4c(=Nc4ncccn4)cc-3oc2c1 [Compound 1L, N,N-Diethyl-5-(pyrimidin-2-ylimino)-5H-benzo[a]phenoxazin-9-amine]	1.78 µg/mL (≈ 4.5 µM)	0.662 µg/mL (≈ 1.67 µM)	2700	5.4 µg/mL (≈ 13.7 µM)	0.804 µg/mL (≈ 2.03 µM)	208 to 210 °C	
CCN(CC)c1ccc2nc3c4ccccc4c(=Nc4nc5ccc(OC)cc5s4)cc-3oc2c1 [Compound 1M, N,N-Diethyl-5-(6-methoxybenzo[d]thiazol-2-ylimino)-5H-benzo[a]phenoxazin-9-amine]	> 30 µg/mL	13.8 µg/mL (≈ 28.7 µM)	1492	80.6 µg/mL (≈ 168 µM)	40 µg/mL (≈ 83.2 µM)	197 to 198 °C	
CCN(CC)c1ccc2nc3c4ccccc4c(=Nc4cc(C)on4)cc-3oc2c1 [Compound 1J, N,N-Diethyl-5-(5-methylisoxazol-3-ylimino)-5H-benzo[a]phenoxazin-9-amine]	21.8 µg/mL (≈ 54.8 µM)	1.86 µg/mL (≈ 4.67 µM)	7360	36.8 µg/mL (≈ 92.4 µM)	11.8 µg/mL (≈ 29.6 µM)	195 to 196 °C	
Nc1nc(N)nc(Nc2ccc([As]3SCC(CO)S3)cc2)n1 (stereo not drawn) [Melarsoprol, melarsoprol, reference compound]							0.0024 µg/mL
CCN(CC)c1ccc2nc3c4ccccc4c(=Nc4nc5ccc(Cl)cc5s4)cc-3oc2c1 [Compound 1I, 5-(6-Chlorobenzo[d]thiazol-2-ylimino)-N,N-diethyl-5H-benzo[a]phenoxazin-9-amine]	> 30 µg/mL	19.6 µg/mL (≈ 40.5 µM)	>210	> 90 µg/mL	44.8 µg/mL (≈ 92.4 µM)	229 to 231 °C	
CCN(CC)c1ccc2nc3c4ccccc4c(=Nc4ncc(Cl)cc4Cl)cc-3oc2c1 [Compound 1K, 5-(3,5-Dichloropyridin-2-ylimino)-N,N-diethyl-5H-benzo[a]phenoxazin-9-amine]	> 30 µg/mL	8.13 µg/mL (≈ 17.5 µM)	2866	83.1 µg/mL (≈ 179 µM)	38.6 µg/mL (≈ 83.3 µM)	192 to 193 °C	

— patent US8288374B2, “Medicinal composition containing benzo[a]phenoxazine compound as the active ingredient for prevention or treatment of protozoal disease” (Hoshi University, priority 2008, dated 2012)
